Laboratory results reported in article PMC10609173, “Antiplasmodial and Antileishmanial Activities of a New Limonoid and Other Constituents from the Stem Bark of Khaya senegalensis” (Molecules, 2023).
Converted amounts (≈) assume the structure as drawn. Like-named read-outs stand apart in the source and are kept apart here.

Experiments:
[1] = Cytotoxicity assay (resazurin) on RAW 264.7 macrophages; type: cell-based, murine; details: mouse
Method: The murine macrophage RAW 264.7 cell line was grown in DMEM (Dulbecco’s modified Eagle’s medium) containing 1% penicillin-streptomycin, 1% nonessential amino acids (NEA), and 10% HIFBS at 37 °C, and 5% CO2 in a humidified environment. A reverse Etaluma fluorescence microscope was used to view the cells every day, and the growth media was replaced every 72 h. At 80% confluence, cells were isolated using 0.25% Trypsine-EDTA (Gibco, MT, USA).
The murine macrophages, RAW 264.7 cells, were plated into a 96-well cell culture treated flat-bottomed plate ([…], Inc., Newton, NC 28658, USA) at a density of 10 × 10^4 cells/100 μL/well and incubated overnight to enable cell adhesion. A fresh complete medium containing serially diluted concentrations of crude extract, fractions, and compounds was used to replace the previous medium. The final assay concentration values for extracts/fractions and compounds varied from 400 μg/mL to 0.8 μg/mL and 100–0.16 μg/mL, respectively. Podophyllotoxin (Sigma-Aldrich, Munich, Germany) was used as a positive control at a maximum dose of 10 μM. After 48 h of incubation, 10 μL of resazurin solution (0.15 mg/mL dissolved in PBS) was added to each well, and the plates were incubated for an additional 4 h. Fluorescence data were finally recorded with a Magellan Infinite M200 plate reader (Tecan, Germany) at excitation and emission wavelengths of 530 nm and 590 nm, respectively.
(§1) The resulting fluorescence readings were used to calculate the growth inhibition percentages relative to the negative control for each sample and for each of the tested doses. GraphPad Prism 8.0 software was used to generate concentration-response curves from the nonlinear regression fit to determine the median inhibitory or cytotoxic concentration (IC50/CC50). The resistance index (RI) for antiplasmodial tests was calculated as the ratio between the samples’ IC50 values for the chloroquine-sensitive strain 3D7 and the multiresistant strain Dd2 [69]. Inhibitors with an RI value below 1 were considered to act preferentially on the resistant strain. Based on each inhibitor’s antiparasitic efficacy (IC50) and cell toxicity (CC50), selectivity indices (SI) were calculated [SI = CC50 (RAW)/IC50 (Parasites)]. Samples were classified as poorly toxic to RAW cells if their SI values were greater than 10 [70].

[2] = system: chloroquine-sensitive 3D7 strain of Plasmodium falciparum (Pf3D7); assay: Antiplasmodial SYBR Green I fluorescence assay, Pf3D7 strain; type: cell-based; details: read-out: Antiplasmodial Activity Pf3D7 IC50 ± SD
From the text: (§2) The parasite strains used in this study are continuously cultured at the Antimicrobial and Biocontrol Agents Unit of the University of Yaoundé I, and were graciously provided by BEI Resources (https://www.beiresources.org (accessed on 16 February 2019)). They comprise the Leishmania donovani strain (1S(MHOM/SD/62/1S), the multiresistant (PfDd2), and the chloroquine-sensitive (Pf3D7-(MRA-102)) strains of Plasmodium falciparum. RPMI 1640 media supplemented with 0.2% sodium bicarbonate (Sigma Aldrich, Billings, MT, USA), 0.5% Albumax II (Gibco), 1% hypoxanthine 100X (Gibco, Billings, MT, USA), 25 mM HEPES, and 0.04% gentamicin (Sigma Aldrich) was used to sustain P. falciparum strains in sterile petri dishes. Fresh red blood cells from healthy O^+ human volunteers were also added to the medium. These cells were suspended at 4% hematocrit (v/v) and incubated at 37 °C in a humidified environment with 5% CO2. To regularly maintain the culture, fresh medium was added to the culture every day. Thin blood smears stained with 10% Giemsa were used to microscopically monitor cell-cycle transition and parasitemia under immersion oil.
(§3) The antiplasmodial efficacy of the samples was evaluated using the SYBR Green I-based fluorescence assay, as previously reported by Smilkstein et al., on a sorbitol-synchronized ring stage culture of Plasmodium falciparum (PfDd2 and Pf3D7 strains). The test relies on the development of intense fluorescence following SYBR green binding to the exposed DNA found in wells containing healthy cells. Ninety microliters of parasites prepared with 1% hematocrit and 2% parasitemia and 10 μL of test sample extracts, fractions, isolated chemicals, chloroquine, and artemisinin were each added in triplicate into wells of a flat-bottomed microplate. The final test concentration values for the samples varied from 50 μg/mL-0.08 μg/mL and 100 μg/mL-0.16 μg/mL for extract/fractions. Following a 72 h incubation at 37 °C, 100 μL of SYBR Green I solution prepared with lysis buffer (0.2 μL of 10,000 SYBR Green I per mL of lysis buffer) made of EDTA (5 mM), Tris (20 mM; pH 7.5), Triton X-100 (0.08%; v/v), and saponin (0.008%; m/v) was added to each well. Fluorescence measurements were taken using an Infinite M200 microplate reader (Tecan, MT, USA) at emission and excitation wavelengths of 538 and 485 nm, respectively.
as §1

[3] = system: multidrug-resistant Dd2 strain of Plasmodium falciparum (PfDd2); assay: Antiplasmodial SYBR Green I fluorescence assay, PfDd2 strain; type: cell-based; details: Plasmodium falciparum
From the text: as §2, §3, §1

[4] = system: promastigote form of Leishmania donovani (1S(MHOM/SD/62/1S)); assay: Antileishmanial resazurin-based assay on promastigotes; type: cell-based; details: for IC50: Leishmania donovani, read-out: Antileishmanial Activity IC50 ± SD; for Antileishmanial Selectivity (SI): SI = CC50 against macrophages/IC50 against promastigotes
Method: A T-75 cm^2 cell culture flask was filled with complete Medium 199 [M199 supplemented with 10% heat-inactivated fetal bovine serum (HIFBS) and 100 IU/mL penicillin/streptomycin (Sigma, Darmstadt, Germany)] and used to grow the promastigote forms of Leishmania donovani. Every 72 h, flasks were subcultured and incubated at 28 °C.
The resazurin-based assay was used to evaluate the antileishmanial activity of the extract (100 μg/mL–0.16 μg/mL), major fractions (100 μg/mL–0.16 μg/mL), and isolated compounds (50 μg/mL–0.08 μg/mL) against the promastigote form of Leishmania donovani. Briefly, 10 μL of inhibitors at various triplicate doses (as prescribed for the antiplasmodial assay) were added to 90 μL of promastigotes from a logarithmic phase culture at a density of 4.10^5 parasites/mL. The plates were incubated for 28 h at 28 °C, and 10 μL of resazurin solution (Sigma, Darmstadt, Germany) was added. Amphotericin B (Sigma, Darmstadt, Germany) (10 μg–0.016 μg/mL) and 0.1% DMSO-treated wells were used as the […], respectively. After a further 44 h of incubation, plates were read using a Magelan Infinite M200 fluorescence plate reader (Tecan, Männedorf, Switzerland) at excitation and emission wavelengths of 530 and 590 nm, respectively.
as §1

[5] = system: amastigote forms of Leishmania donovani; design: method as in doi:10.1076/phbi.39.4.284.5921; details: isolated from Khaya senegalensis; cited from earlier work
[6] = system: chloroquine-sensitive/sulfadoxine-resistant Pf3D7 strain; design: method as in PMID 36837917; details: in vitro; isolated from Trichilia monadelpha; cited from earlier work
[7] = RAW 264.7 macrophages, 48 h incubation, resazurin, read-out: Cytotoxicity on RAW 264.7 Cells CC50 ± SD
[8] = 3D7, Pf3D7 strain, ring stage, 72 h
[9] = DD2, PfDd2 strain, ring stage, 72 h, read-out: Antiplasmodial Activity PfDd2 IC50 ± SD
[10] = DD2, 72 h, read-out: Antiplasmodial Activity PfDd2 IC50 ± SD, PfDd2 strain, ring stage, 72 h
[11] = L. donovani promastigotes, 28 °C

| SMILES | IC50 [2, 8] | IC50 [3, 9] | IC50 [4, 11] | Antileishmanial Selectivity (SI) [4] | CC50 at 48 h [1] | also measured |
| --- | --- | --- | --- | --- | --- | --- |
| COc1cc([C@@H]2c3cc4c(cc3[C@H](O)[C@H]3COC(=O)[C@H]23)OCO4)cc(OC)c1OC [Podophyllotoxin, reference compound] | – | – | – | – | – | CC50 at 48 h [1, 7]: 0.71 ± 0.2 µg/mL (≈ 1.71 µM) |
| C[C@@H]1CC[C@H]2[C@@H](C)C(=O)O[C@@H]3O[C@@]4(C)CC[C@@H]1[C@]32OO4 [Artemesin, artemisinin, reference compound] | 0.02 µg/mL (≈ 0.0708 µM) | 0.024 ± 0.24 µg/mL (≈ 0.085 µM) | – | – | – | – |
| C=C1C2C(OC3CC(=O)OC4(C)COC(=O)CC4C32C)C(OC(=O)C(O)C(C)CC)C2(C)C(c3ccoc3)CC(=O)C12O (stereo not drawn) [Rohituka-3 (5), rohituka-3] | 68 ± 0.02 µg/mL (≈ 113 µM) | – | 23.35 ± 0.21 µg/mL (≈ 38.9 µM) | >17.13 | – | CC50 at 48 h ([1]; RAW 264.7 macrophage cells, RAW 264.7 macrophages, 48 h incubation, resazurin, read-out: Cytotoxicity on RAW 264.7 Cells CC50 ± SD): > 400 µg/mL; IC50 [3, 10]: 15.9 ± 0.33 µg/mL (≈ 26.5 µM) |
| Oc1cc(O)c2c(c1)O[C@H](c1ccc(O)c(O)c1)[C@@H](O)[C@@H]2c1c(O)cc2c(c1O)C[C@H](O)[C@@H](c1ccc(O)c(O)c1)O2 [catechin-(4a,6)-catechin] | – | – | – | – | – | IC50 against amastigote forms of Leishmania donovani [5]: 3.85 µg/mL |
| COC(=O)[C@H](O)[C@@H]1[C@@]2(C)[C@H]3CC[C@@]4(C)[C@H](c5ccoc5)OC(=O)C[C@@]45O[C@H]4C(=O)[C@@]1(C)C[C@]2(OC(C)=O)[C@@H]4[C@@]35O [Khayanolide E (6), khayanolide E] | 56.98 ± 0.08 µg/mL (≈ 102 µM) | 14.03 ± 0.06 µg/mL (≈ 25.1 µM) | 81.73 ± 0.12 µg/mL (≈ 146 µM) | 0.99 | 81.6 µg/mL (≈ 146 µM) | IC50 against Pf3D7 [6]: 1.68 µg/mL (≈ 3.01 µM) |
| C=C1[C@@H]2CC[C@@]3(C)[C@H](c4ccoc4)OC(=O)C[C@]13O[C@H]1CC(=O)C(C)(C)[C@H](CC(=O)OC)[C@]12C [Methylangolensate (4), methyl angolensate] | – | – | – | 2.81 | – | CC50 at 48 h [1, 7]: 72.7 µg/mL (≈ 155 µM); IC50 ([2]; 3D7, 72 h): 165.19 ± 0.06 µg/mL (≈ 351 µM); IC50 [3, 10]: 20.5 ± 0.45 µg/mL (≈ 43.6 µM); IC50 [4]: 25.8 ± 0.27 µg/mL (≈ 54.9 µM) |
| C=C(C)[C@@H]1CC[C@]2(C(=O)O)CC[C@]3(C)[C@H](CC[C@@H]4[C@@]5(C)C[C@@H](O)[C@H](O)C(C)(C)[C@@H]5CC[C@]43C)[C@@H]12 [Alphitolic acid (3), alphitolic acid] | 146.77 ± 0.13 µg/mL (≈ 310 µM) | – | 17.1 ± 0.9 µg/mL (≈ 36.2 µM) | 2.09 | 35.8 µg/mL (≈ 75.6 µM) | IC50 [3, 10]: > 200 µg/mL |
| C[C@@H]1[C@H](O)[C@@H](C)/C=C/C=C/C=C/C=C/C=C/C=C/C=C/[C@H](O[C@@H]2O[C@H](C)[C@@H](O)[C@H](N)[C@@H]2O)C[C@@H]2O[C@](O)(C[C@@H](O)C[C@@H](O)[C@H](O)CC[C@@H](O)C[C@@H](O)CC(=O)O[C@H]1C)C[C@H](O)[C@H]2C(=O)O [Amphotericin B, amphotericin B, reference compound] | – | – | 3.14 ± 0.46 µg/mL (≈ 3.4 µM) | – | – | – |
| CCN(CC)CCCC(C)Nc1ccnc2cc(Cl)ccc12 (stereo not drawn) [Chloroquine, Chloroquine phosphate, reference compound] | – | – | – | – | – | IC50 ([2]; 3D7, 72 h): 0.022 ± 0.25 µg/mL; IC50 ([3]; DD2, 72 h, read-out: Antiplasmodial Activity PfDd2 IC50 ± SD): 0.085 ± 0.01 µg/mL |
| CC1(C)CC[C@]2(C(=O)O)CC[C@]3(C)C(=CCC4[C@@]5(C)C[C@@H](O)[C@H](O)C(CO)(CO)C5CC[C@]43C)C2[C@@H]1O (stereo partly drawn) [Bellericagenin B (2), bellericagenin B] | 107.7 ± 0.37 µg/mL (≈ 207 µM) | 34.02 ± 0.09 µg/mL (≈ 65.3 µM) | 6.5 ± 0.01 µg/mL (≈ 12.5 µM) | >61.54 | > 400 µg/mL | – |
| COc1ccc(-c2cc(=O)c3c(O)c(OC)c(OC)cc3o2)cc1OC [Belamcanidin (8), Belamcanidin] | 104.9 ± 0.39 µg/mL (≈ 293 µM) | 50.97 ± 0.37 µg/mL (≈ 142 µM) | 22.21 ± 0.08 µg/mL (≈ 62 µM) | >18.013 | > 400 µg/mL | – |
| Oc1cc(O)c2c(c1)O[C@H](c1ccc(O)c(O)c1)[C@@H](O)[C@@H]2c1c(O)cc(O)c2c1O[C@H](c1ccc(O)c(O)c1)[C@@H](O)C2 [catechin-(4a,8)-catechin] | – | – | – | – | – | IC50 against amastigote forms of Leishmania donovani [5]: 3.98 µg/mL |
